From ChEMBL document CHEMBL3044846, “Synthesis and structureactivity relationships of serotonin derivatives effect on -glucosidase inhibition” (Med Chem Res, 2012)
Activity calls are given as the source filed them. The rule behind the calls is not given here.

Experiments:
[1] = target: Alpha-glucosidase MAL62 (Saccharomyces cerevisiae) (UniProt P07265); assay: Inhibition of yeast alpha-glucosidase using p-nitrophenyl-alpha-D-glucopyranoside as substrate preincubated at 300 uM for 10 min before substrate addition and measured after 10 min by spectrophotometry
Alpha-glucosidase MAL62 [2] = target: T1, Alpha-glucosidase MAL62 (Saccharomyces cerevisiae, UniProt P07265); assay: (§1) Inhibition of yeast alpha-glucosidase using p-nitrophenyl-alpha-D-glucopyranoside as substrate preincubated for 10 min before substrate addition and measured after 10 min by spectrophotometry
[3] = target: Alpha-glucosidase MAL62 (Saccharomyces cerevisiae) (UniProt P07265); assay: as §1
Alpha-glucosidase MAL62 [4] = target: T1, Alpha-glucosidase MAL62; assay: Uncompetitive inhibition of yeast alpha-glucosidase by Lineweaver-Burk plot analysis
Alpha-glucosidase MAL62 [5] = target: T1, Alpha-glucosidase MAL62; assay: Competitive inhibition of yeast alpha-glucosidase by Dixon plot analysis
[6] = target: Alpha-glucosidase MAL62 (Saccharomyces cerevisiae) (UniProt P07265); assay: Competitive inhibition of yeast alpha-glucosidase by Lineweaver-Burk plot analysis
Alpha-glucosidase MAL62 [7] = target: T1, Alpha-glucosidase MAL62; assay: Mixed-type inhibition of yeast alpha-glucosidase by Lineweaver-Burk plot analysis

T1 sequence (P07265 whole entry): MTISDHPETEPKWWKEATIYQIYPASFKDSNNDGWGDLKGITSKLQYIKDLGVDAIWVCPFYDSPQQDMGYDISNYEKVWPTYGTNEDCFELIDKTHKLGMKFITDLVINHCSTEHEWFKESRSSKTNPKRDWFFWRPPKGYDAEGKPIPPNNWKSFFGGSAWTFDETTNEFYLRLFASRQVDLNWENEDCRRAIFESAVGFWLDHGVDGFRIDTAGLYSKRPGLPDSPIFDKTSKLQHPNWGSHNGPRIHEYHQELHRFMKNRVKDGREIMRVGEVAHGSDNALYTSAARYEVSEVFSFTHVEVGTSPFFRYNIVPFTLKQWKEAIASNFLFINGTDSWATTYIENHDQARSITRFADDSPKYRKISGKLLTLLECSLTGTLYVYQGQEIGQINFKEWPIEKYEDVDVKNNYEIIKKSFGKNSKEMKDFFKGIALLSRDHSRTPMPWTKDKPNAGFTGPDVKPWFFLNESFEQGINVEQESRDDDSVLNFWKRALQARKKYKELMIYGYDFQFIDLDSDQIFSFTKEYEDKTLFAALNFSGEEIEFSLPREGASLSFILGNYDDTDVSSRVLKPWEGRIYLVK
Alpha-glucosidase MAL62 (Saccharomyces cerevisiae), sequence (P07265 whole entry): as above

Compound	IC50 (Alpha-glucosidase MAL62 [2]) [µM]	inhibition [3]	other results
O=C(O)/C=C/c1ccc(O)c(O)c1 [CAFFEIC ACID]	> 300		inhibition [1]: 10.2%
O=C(O)/C=C/c1ccccc1 [CINNAMIC ACID]	> 300		inhibition [1]: 4.5%
O=C(O)/C=C/c1ccc(O)cc1 [COUMARIC ACID]	> 300		inhibition [1]: 4.9%
OC[C@H]1NC[C@H](O)[C@@H](O)[C@@H]1O [DUVOGLUSTAT]	278		
COc1cc(/C=C/C(=O)O)ccc1O [FERULATE]	> 300		
COc1ccc(/C=C/C(=O)NCCc2c[nH]c3ccc(O)cc23)cc1OC [N-3,4-DIMETHOXY CINNAMOYL SEROTONIN]	> 300	Dose-dependent effect	
O=C(/C=C/c1ccc(O)c(O)c1)NCCc1c[nH]c2ccc(O)cc12 [N-CAFFEOYLSEROTONIN]	48.2	Dose-dependent effect	Ki (Alpha-glucosidase MAL62 [4]): 64.4 µM
O=C(/C=C/c1ccccc1)NCCc1c[nH]c2ccc(O)cc12 [N-CINNAMOYL SEROTONIN]	80.8	Dose-dependent effect	Ki (Alpha-glucosidase MAL62 [5]): 133 µM; inhibition [6]: Active
O=C(CCc1ccc(O)cc1)NCCc1c[nH]c2ccc(O)cc12 [N-DIHYDRO-P-COUMAROYLSEROTONIN]	> 300		
O=C(CCc1ccc(O)c(O)c1)NCCc1c[nH]c2ccc(O)cc12 [N-DIHYDROCAFFEOYL SEROTONIN]	> 300		
O=C(CCc1ccccc1)NCCc1c[nH]c2ccc(O)cc12 [N-DIHYDROCINNAMOYL SEROTONIN]	> 300		
COc1cc(CCC(=O)NCCc2c[nH]c3ccc(O)cc23)ccc1O [N-DIHYDROFERULOYL SEROTONIN]	> 300		
COc1cc(CCC(=O)NCCc2c[nH]c3ccc(O)cc23)cc(OC)c1O [N-DIHYDROSINAPOYL SEROTONIN]	> 300		
COc1cc(/C=C/C(=O)NCCc2c[nH]c3ccc(O)cc23)ccc1O [N-FERULOYL SEROTONIN]	99.8	Dose-dependent effect	Ki (Alpha-glucosidase MAL62 [7]): 130 µM
COc1ccc(/C=C/C(=O)NCCc2c[nH]c3ccc(O)cc23)cc1O [N-ISOFERULOYL SEROTONIN]	> 300	Dose-dependent effect	
O=C(/C=C/c1ccc(O)cc1)NCCc1c[nH]c2ccc(O)cc12 [N-P-COUMAROYL SEROTONIN]	47.2	Dose-dependent effect	Ki (Alpha-glucosidase MAL62 [4]): 81.6 µM
COc1ccc(/C=C/C(=O)NCCc2c[nH]c3ccc(O)cc23)cc1 [N-P-METHOXY CINNAMOYL SEROTONIN]	> 300	Dose-dependent effect	
COc1cc(/C=C/C(=O)NCCc2c[nH]c3ccc(O)cc23)cc(OC)c1O [N-SINAPOYL SEROTONIN]	66.2	Dose-dependent effect	Ki (Alpha-glucosidase MAL62 [7]): 111 µM
NCCc1c[nH]c2ccc(O)cc12 [SEROTONIN]	> 300		inhibition [1]: 25.6%
COc1cc(/C=C/C(=O)O)cc(OC)c1O [SINAPINATE]	145		
